Experiments:
Type in all cases: cell-based, human
p53 levels in MCF7 cells = assay: Western blot of endogenous p53 levels in MCF7 cells
Protocol: (§1) Whole cell lysates (Lysates) were prepared in Nonidet P-40 lysis buffer (25 mM Tris, pH 8.0, 150 mM NaCl, 0.5 mM EDTA, 0.5 mM EGTA, 1% Nonidet P-40, 1 mM sodium orthovanadate, 1 mM DTT) and supplemented with protease inhibitor mixture set III (Calbiochem) at 1:100 and incubated on ice for 30 min. Debris was collected by centrifugation, and equal amounts of supernatant protein were determined by BioRad assay. Protein was fractionated by SDS-PAGE and transferred to PVDF membrane (Amersham Biosciences). Antibodies used for Western blotting were: Mdm2 (SMP14, 2Al0, and 4Bl1), c-Src (B-12; Santa Cruz), p53 (DO-1), tubulin (TU-02), GAPDH (8C2), and β-actin (C4; Santa Cruz Biotechnology); phosphotyrosine (4010; Upstate); phospho-c-Src Tyr^416 (Cell Signaling); Myc (9E10) and HA (12CA5) Immunoprecipitation from lysates was performed using 500 ng of either SMP14 for Mdm2, HA (12CA5), p53 (D01) or c-Src (B-12) antibody overnight at 4° C. in 700 μl of PBS. Protein A/G Plus Agarose (Santa Cruz Biotechnology) was added to the mixture and incubated an additional 2 hrs at 4° C., precipitates were washed three times in PBS, and samples were resuspended in SDS loading buffer and boiled for 5 min.
To examine endogenous p53 levels, MCF 7 cells were transfected with increasing amounts of CA-Src. […]

[1] = system: Mdm2 protein levels in MCF7 cells; assay: Western blot of endogenous Mdm2 protein levels in MCF7 cells
Protocol: (§2) Mammalian cells (H1299 and MCF7) were cultured at 37° C. in a humidified incubator with 5% CO2 in DMEM high glucose plus 10% FBS. Transfection in H1299 was performed using a calcium phosphate method and in MCF7 using Lipofectamine Plus reagent (Invitrogen). Equal amounts of DNA were transfected into cells and incubated for the indicated times prior to analysis. PPI (Calbiochem) and MLN4924 (LifeSensors) were used at concentrations provided. Site-directed mutagenesis was performed by PCR, and constructs were sequenced in their entirety.
as §1
To examine how c-Src regulates endogenous Mdm2 protein levels, c-Src was activated through epidermal growth factor (EGF) stimulation of MCF7 cells. MCF7 cells were serum-starved for 48 hrs and then treated with 200 ng/mL of EGF for a time course of 2 hrs. […]

mdm2 P2 promoter = assay: mdm2-P2-Luc luciferase reporter assay in MCF7 cells; settings: vs DMSO, FIG. 16
Protocol: (§3) For the luciferase assays, H1299 and MCF7 cells were transfected with PG13-Luc, Mdm2-P2-Luc, Maspin-Luc or Mutant Maspin-Luc (MT1) along with Myc-LacZ for determination of […] activity, using the calcium phosphate method. Reporter activity was normalized to […] activity. Data generated were done in triplicate and standard deviation was calculated from the mean.
To determine whether c-Src altered mdm2 gene expression, a luciferase reporter assay was conducted in which the mdm2 P2 promoter was attached to luciferase.

[2] = system: endogenous neddylated p53 in MCF7 cells; assay: Immunoprecipitation of p53 from MCF7 cells and anti-Nedd8 immunoblot; settings: vs DMSO, FIG. 30
Protocol: as §1
To determine the role of c-Src on endogenous neddylation of p53, the c-Src inhibitor PP1 was used to treat MCF7 cells. MCF7 cells were treated with PP1, and p53 was immunoprecipitated from cell extracts. […]

[3] = system: endogenous Mdm2 tyrosine phosphorylation in MCF7 cells; assay: Immunoprecipitation of Mdm2 from MCF7 extracts and immunoblot for phosphorylated tyrosine; settings: MCF7 cells pretreated 16 hrs; FIG. 8
Protocol: as §2
Whole cell lysates (Lysates) were prepared in Nonidet P-40 lysis buffer (25 mM Tris, pH 8.0, 150 mM NaCl, 0.5 mM EDTA, 0.5 mM EGTA, 1% Nonidet P-40, 1 mM sodium orthovanadate, 1 mM DTT) and supplemented with protease inhibitor mixture set III (Calbiochem) at 1:100 and incubated on ice for 30 min. Debris was collected by centrifugation, and equal amounts of supernatant protein were determined by BioRad assay. Protein was fractionated by SDS-PAGE and transferred to PVDF membrane (Amersham Biosciences). […]
First, H1299 cells were transfected with HA-tagged Mdm2 (HA-Mdm2) with either constitutively active c-Src (CA-Src) or a kinase dead Src (KD-Src). […] Along with overexpression, whether c-Src could phosphorylate endogenous Mdm2 was determined. […]

[4] = system: maspin protein in MCF7 cells; assay: Western blot of Maspin in MCF7 cells; settings: vs DMSO, FIG. 36
Protocol: as §1
To ensure that the decrease seen on the maspin promoter was due to c-Src phosphorylation of Mdm2, another luciferase assay was done using the Y281-302F Mdm2 and CA-Src. […]

[5] = system: p53 activity on the maspin promoter in MCF7 cells; assay: Maspin-Luc luciferase assay in MCF7 cells; settings: 16 hrs, FIG. 35
Protocol: as §3
To ensure that the decrease seen on the maspin promoter was due to c-Src phosphorylation of Mdm2, another luciferase assay was done using the Y281-302F Mdm2 and CA-Src. […] For further insight on how endogenous neddylation of p53 would affect maspin level, MCF7 cells were transfected with the maspin-Luc construct or a mutant maspin-Luc (MT1) that is unresponsive to p53, to ensure luciferase activity was dependent on p53. c-Src was then inhibited for 16 hrs using PP1 and a luciferase assay was performed. […] These findings provide insight into the regulation of c-Src-induced neddylation of p53. This neddylation event is responsible for the further reduction in p53 activity on both the PG13-Luc and on its ability to activate the tumor suppressor maspin (FIG. 37).

[6] = system: p53 activity (PG13-Luc) in H1299 cells; assay: PG13-Luc luciferase assay in H1299 cells transfected with p53, Mdm2 and CA-Src; settings: H1299 cells transfected with PG-13-luc, FIG. 32
Protocol: as §3
H1299 cells were transfected with the PG-13-luc, p53, Mdm2 and CA-Src. Reduction in p53 activity by Mdm2 was further increased in the presence of c-Src.

[7] = system: neddylating activity of Mdm2 (neddylated p53) in H1299 cells; assay: Western blot of neddylated p53 in H1299 cells transfected with p53, Mdm2 and CA-Src; settings: vs DMSO, FIG. 29
Protocol: as §2
H1299 cells were transfected with His-Ubiquitin or His-Nedd8 and other plasmids as indicated using calcium phosphate method. 48 hours after transfection, cells were lysed in 1 ml of 6M guanidinium-HCl, 0.1M Na2HPO4/NaH2PO4, 0.01M Tris-HCl pH 8.0 plus 5 mM Imidazole and 10 mM β-mercaptoethanol. After sonication, the lysates were mixed with 30 μl of Ni^2+-NTA-agarose beads (Qiagen) prewashed with lysis buffer and incubated for 2 hours at room temperature. The beads were successively washed and eluted.
Based on transient transfection data that supported its role as a neddylating enzyme, the affect of pharmacological inhibition of neddylating activity of Mdm2 using MLN4924 was determined.

EGF: epidermal growth factor used to activate c-Src in MCF7 cells
p53 levels on EGF stimulation (p53 levels in MCF7 cells; MCF7 cells serum starved 48 hours, 1-hour time course, FIG. 23): increase in p53 | Mdm2 protein levels on EGF stimulation ([1]; MCF7 cells serum-starved 48 hrs, 200 ng/mL, time course of 2 hrs, FIG. 12): increase of Mdm2 protein levels

Cc1ccc(-c2nn(C(C)(C)C)c3ncnc(N)c23)cc1 [PP1]
mdm2 promoter luciferase activity (mdm2 P2 promoter): No difference | p53 levels (p53 levels in MCF7 cells; MCF7 cells, increasing concentrations (1, 5, 10, 15, 20 μM), FIG. 24): dose dependent decrease in p53 levels | endogenous neddylated p53 [2]: decrease in endogenous neddylated p53 | endogenous Mdm2 tyrosine phosphorylation [3]: loss of endogenous Mdm2 tyrosine phosphorylation | maspin protein level [4]: maspin protein was increased | Mdm2 levels ([1]; MCF7 cells, increasing concentrations (1, 5, 10, 15, 20 μM), FIG. 14): dose-dependent decrease in Mdm2 levels | Mdm2 protein level after EGF ([1]; serum starved MCF7 cells pre-treated 1 hr before addition of EGF, FIG. 13): no apparent increase in Mdm2 | p53 activity on maspin-Luc construct [5]: increase of p53 activity on the maspin-Luc construct

NS(=O)(=O)OC[C@@H]1C[C@@H](n2ccc3c(N[C@H]4CCc5ccccc54)ncnc32)C[C@@H]1O [MLN4924]
p53 activity (PG13-Luc) [6]: restored p53 activity to levels observed with Mdm2 alone | neddylated p53 [7]: loss of neddylated p53

— US9200333B2, “Methods for identifying modulators of murine double minute 2” (Indiana University Research and Technology Corporation, priority 2012, dated 2015)
